Columns and labels:
Mut-OR10 = test: cAMP-mediated luciferase reporter gene assay, triple Arg mutant of consensus OR10; assay type: cell-based, human; conditions: FIG. 10F
Procedure: (§1) FIG. 10A-B. Consensus OR1, OR6, OR10 and OR52 are functionally expressed in Hana3A cells, as indicated by cAMP-mediated luciferase assays. (A) Heatmap of ORs responses to 30 uM odorant selected from a previously screened panel of 320 compounds. Luciferase activity was normalized for each OR by setting as 1.0 the highest response value, and 0 as the lowest response value. (B) Dose-response curve of consensus ORs to candidate ligands ranging from 0 to 316 uM or 1 mM. Cells transfected with pCI vector were used as a negative control. Luciferase activity was normalized by setting as 1.0 the highest response value, and 0 as the lowest response value of each experiment. n=3, error bars indicate SEM.
(§2) FIG. 10C-D-E-F. Improvement of OR expression by mutations in TM1 and Helix 8. (C) Homology model of hOR10. Each TM is highlighted in a colored tubes and residues D511.60, S521.61, H531.62 and E294H8 are represented in licorice (pink). (D) Zoom on the residues 1.60, 1.61, 1.62, H8 mutated for hOR1 (red), hOR10 (blue), hOR51 (green) and hOR52 (pink). […]
(§3) The consensus ORs already show a clear increase of cell surface expression in comparison to naturally-occurring ORs. […] Experiments evaluated the cell surface expression of the consensus ORs with their corresponding triple Arg mutants, including a well-studied non-olfactory class A GPCR, the muscarinic 3 receptor (M3) (FIG. 10E). […]

Mut-OR52 = test: cAMP-mediated luciferase reporter gene assay, triple Arg mutant of consensus OR52; assay type: cell-based, human; conditions: FIG. 10F
Procedure: as §1, §2, §3

| SMILES | response of Mut-OR10 compared to consensus OR10 (Mut-OR10) | response of Mut-OR10 to its agonist (luciferase activity) (Mut-OR10; dose-response) | response of Mut-OR52 to its agonist (luciferase activity) (Mut-OR52) |
| --- | --- | --- | --- |
| CC(=O)/C=C/C1=C(C)CCCC1(C)C [0-ionone, β-ionone] | diminished compared to OR10 | responded |  |
| CCCCCCCCC(=O)O [nonanoic acid] |  |  | responded |

Reference: patent publication US12163950B2, “Synthetic odorant receptors” (Duke University, priority 2018, dated 2024)
